# Source: patent US20250134874A1, “PHARMACEUTICAL FORMULATIONS COMPRISING 3-({[(4R)-7-{METHYL[4-(PROPAN-2-YL)PHENYL]AMINO}-3,4-DIHYDRO-2H-1-BENZOPYRAN-4-YL]METHYL}AMINO)PYRIDINE-4-CARBOXYLIC ACID” (TACHYON THERAPEUTICS, INC., priority 2021, published 2025)
# Tested on: 301 cancer cell lines from different tumor types (OncoPanel; HD Biosciences)
# Assay: 2D cell viability inhibition assay (CellTiter-Glo) in cancer cell line panel
# Format: cell-based
# Set-up: key to AUC: AUC as fraction of the no-inhibition area (dose range × 0–100 % of control)
# Details: for Emax: in %
# Experimental: In a larger screening study, compound 1 was evaluated across a broad cancer cell line panel (OncoPanel; HD Biosciences) composed of 301 cancer cell lines from different tumor types.
# 2D cell viability inhibition assays were performed in multiwell plates seeded with cells from the panel. After seeding, the plates were cultured overnight in a humidified incubator at 37° C. to promote adherence. Assays were initiated in individual wells by adding either DMSO as a vehicle control, growth media as a blank, or serially diluted compound 1 (10 μM to 0.0005 μM with 1:3 serial dilution). Cultures were incubated for 168 hours after which the number of viable cells in each test well was assessed using the CellTiter-Glo® Luminescent Cell Viability Assay. Luminescence readouts were performed using an EnVision® Multilabel Reader and the compound 1 readouts were normalized to the DMSO control readouts, expressed as a percent of the control. Outliers were flagged out by visual inspection. Percent of control was plotted against the corresponding compound 1 concentration and the absolute IC50 value was determined using four-parameter logistic non-linear regression as the concentration where inhibition was 50% of the control. For maximum inhibition <50%, the absolute IC50 was reported as >10. In addition to EC50 and IC50, AUC was determined and was normalized to the area corresponding to theoretical no-inhibition (the rectangular area defined by the compound dose range and 0 to 100 in y). Emax was recorded as the minimum in y with the compound dose range. For those cell lines where Emax>40, EC50 was manually set to 10 μM. A hierarchical clustering algorithm based on Euclidean distance between the standardized input values and “Ward.D” method as implemented in R hclust function was used to visualize the compound 1 cellular potency data. The sensitive/moderate/resistant calls for each cell line was determined by visually inspecting the resulting clustering dendrogram. All the analyses were done in R Core Team.
structure (smiles),measurement,setting,value
"CC(C)c1ccc(N(C)c2ccc3c(c2)OCC[C@H]3CNc2cnccc2C(=O)O)cc1 [Compound 1, 3-({[(4R)-7-{methyl[4-(propan-2-yl)phenyl]amino}-3,4-dihydro-2H-1-benzopyran-4-yl]methyl}amino)pyridine-4-carboxylic acid]",AUC,"RPMI7951, skin, NS, 168 hours",0.8067
same,AUC,RPMI8226 cell line,0.4363
same,Emax,RPMI8226 cell line,12.46
same,AUC,RT11284 cell line,0.3717
same,AUC,"SAOS2, bone, NS, 168 hours",1.081
same,AUC,SCABER cell line,0.5687
same,Emax,SCABER cell line,32.32
same,AUC,SCC4 cell line,0.4619
same,Emax,SCC4 cell line,26.08
same,AUC,"SCC9, upper aerodigestive tract, squamous cell carcinoma, 168 hours",0.9424
same,AUC,"SCC15, upper aerodigestive tract, squamous cell carcinoma, 168 hours",0.9489
same,AUC,"SCC25, upper aerodigestive tract, squamous cell carcinoma, 168 hours",0.7789
same,AUC,SHSY5Y cell line,0.4927
same,Emax,SHSY5Y cell line,25.04
same,AUC,SKBR3 cell line,0.4396
same,Emax,SKBR3 cell line,26.59
same,AUC,SKCO1 cell line,0.5952
same,AUC,"SKHEP1, liver, adenocarcinoma, 168 hours",0.7091
same,AUC,SKLU1 cell line,0.5662
same,AUC,SKMEL1 cell line,0.4427
same,Emax,SKMEL1 cell line,22.0664
same,AUC,SKMEL2 cell line,0.6392
same,AUC,SKMEL3 cell line,0.6207
same,AUC,SKMEL5 cell line,0.4074
same,Emax,SKMEL5 cell line,8.228
same,AUC,"SKMEL24, skin, NS, 168 hours",0.7882
same,AUC,SKMEL28 cell line,0.2796
same,AUC,"SKMEL31, skin, NS, 168 hours",0.7393
same,AUC,SKMES1 cell line,0.6069
same,AUC,"SKNSH, autonomic ganglia, NS, 168 hours",0.7295
same,AUC,"SKOV3, ovary, adenocarcinoma, 168 hours",0.9901
same,AUC,SNB19 cell line,0.4677
same,Emax,SNB19 cell line,20.73
same,AUC,SNGM cell line,0.9165
same,EC50,SNGM cell line,4140 nM
same,IC50,SNGM cell line,4900 nM
same,AUC,SNU5 cell line,0.6837
same,AUC,SNU16 cell line,0.2821
same,AUC,SNU398 cell line,0.4911
same,Emax,SNU398 cell line,25.8616
same,EC50,"SNU668, SNU668 cell line",12.8 nM
same,IC50,"SNU668, SNU668 cell line",18.9 nM
same,AUC,SNU668 cell line,0.464
same,AUC,SNU761 cell line,0.5814
same,EC50,SNU761 cell line,≥ 10000 nM
same,IC50,SNU761 cell line,39.7 nM
same,IC50,"SNU878, SNU878 cell line",> 10000 nM
same,AUC,SNU878 cell line,0.6648
same,AUC,SNU886 cell line,0.6425
same,IC50,"SNU-886, SNU886 cell line",> 10000 nM
same,AUC,"SNUC1, large intestine, adenocarcinoma, 168 hours",0.7478
same,AUC,SNUC2A cell line,0.615
same,EC50,SNUC2A cell line,24.5 nM
same,IC50,SNUC2A cell line,52.5 nM
same,AUC,SUPT1 cell line,0.6913
same,AUC,SW48 cell line,0.6038
same,AUC,SW480 cell line,0.409
same,Emax,SW480 cell line,20.36
same,IC50,"SW579, 168 h, SW579, thyroid, anaplastic carcinoma, 168 hours",> 10000 nM
same,AUC,"SW579, thyroid, anaplastic carcinoma, 168 hours",0.9203
same,AUC,SW620 cell line,0.4658
same,AUC,SW780 cell line,0.4491
same,Emax,SW780 cell line,13.9761
same,AUC,"SW837, large intestine, adenocarcinoma, 168 hours",0.7109
same,IC50,"SW1271, 168 h, SW1271, lung, small cell carcinoma, 168 hours",> 10000 nM
same,AUC,"SW1271, lung, small cell carcinoma, 168 hours",0.8179
same,AUC,"SW1417, large intestine, adenocarcinoma, 168 hours",0.9634
same,AUC,SW1463 cell line,0.3408
same,Emax,SW1463 cell line,7.126
same,AUC,SW1710 cell line,0.5768
same,AUC,SW1990 cell line,0.6894
same,AUC,"T24, urinary tract, transitional cell carcinoma, 168 hours",0.9289
same,AUC,T84 cell line,0.4928
same,AUC,T.T cell line,0.4321
same,Emax,T.T cell line,24.08
same,AUC,TALL1 cell line,0.1999
same,AUC,"TE1, oesophagus, squamous cell carcinoma, 168 hours",0.938
same,AUC,TE4 cell line,0.3948
same,EC50,TE4 cell line,9.11 nM
same,IC50,TE4 cell line,12.7 nM
same,Emax,TE4 cell line,11.49
same,AUC,TE5 cell line,0.3877
same,Emax,TE5 cell line,15.07
same,AUC,TE6 cell line,0.3625
same,Emax,TE6 cell line,14.02
same,AUC,"TE8, oesophagus, squamous cell carcinoma, 168 hours",0.816
same,AUC,TE9 cell line,0.4247
same,Emax,TE9 cell line,25.31
same,AUC,TE10 cell line,0.5293
same,Emax,TE10 cell line,29.65
same,AUC,TE11 cell line,0.304
same,AUC,TE14 cell line,0.3068
same,EC50,TE14 cell line,2.32 nM
same,IC50,TE14 cell line,3.39 nM
same,AUC,"TE15, oesophagus, squamous cell carcinoma, 168 hours",1.084
same,AUC,TF1 cell line,0.2883
same,AUC,THP1 cell line,0.3371
same,AUC,TOV112D cell line,0.3964
same,Emax,TOV112D cell line,23.19
same,AUC,U2OS cell line,0.4065
same,Emax,U2OS cell line,9.064
same,AUC,U87MG cell line,0.514
same,Emax,U87MG cell line,38.45
same,AUC,U937 cell line,0.1808
same,AUC,"UACC812, breast, ductal carcinoma, 168 hours",0.8418
same,AUC,UMUC3 cell line,0.5934
same,AUC,"VCAP, prostate, adenocarcinoma, 168 hours",0.7822
same,AUC,WM115 cell line,0.6097
same,AUC,WM2664 cell line,0.5838
same,AUC,WSUDLCL2 cell line,0.2829
same,AUC,YD38 cell line,0.2983
same,EC50,YD38 cell line,3.55 nM
same,IC50,YD38 cell line,3.77 nM
